ChEMBL document CHEMBL3414499, “Characterization of two distinct structural classes of selective aldehyde dehydrogenase 1A1 inhibitors” (J Med Chem, 2015)
Calls of active or inactive are those of the source. The rule behind the calls is not given here.

Experiments:
[1] = target: T1, Aldehyde dehydrogenase, mitochondrial (Homo sapiens) (UniProt P05091); assay: Activation of recombinant human ALDH2 using propionaldehyde as substrate at 20 uM preincubated for 2 mins with NAD+ followed by substrate addition by UV-Vis spectrophotometric analysis
T1 sequence (whole entry): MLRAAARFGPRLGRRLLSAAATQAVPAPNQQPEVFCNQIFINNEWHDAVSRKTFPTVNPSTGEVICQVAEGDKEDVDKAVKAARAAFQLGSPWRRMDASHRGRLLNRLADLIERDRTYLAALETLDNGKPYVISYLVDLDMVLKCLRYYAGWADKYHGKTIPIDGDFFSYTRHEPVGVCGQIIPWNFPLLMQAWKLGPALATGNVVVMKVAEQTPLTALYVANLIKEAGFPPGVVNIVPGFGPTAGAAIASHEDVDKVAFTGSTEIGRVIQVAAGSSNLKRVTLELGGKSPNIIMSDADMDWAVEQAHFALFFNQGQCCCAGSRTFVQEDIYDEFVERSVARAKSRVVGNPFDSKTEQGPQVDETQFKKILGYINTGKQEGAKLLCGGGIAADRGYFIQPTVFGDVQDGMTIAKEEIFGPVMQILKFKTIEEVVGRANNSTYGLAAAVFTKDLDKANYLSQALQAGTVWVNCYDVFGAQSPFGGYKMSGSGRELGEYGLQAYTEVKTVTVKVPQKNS

[2] = target: T2, Aldehyde dehydrogenase X, mitochondrial (Homo sapiens) (UniProt P30837); assay: Activation of recombinant human ALDH1B1 using propionaldehyde as substrate at 20 uM preincubated for 2 mins with NAD+ followed by substrate addition by UV-Vis spectrophotometric analysis
T2 sequence (whole entry): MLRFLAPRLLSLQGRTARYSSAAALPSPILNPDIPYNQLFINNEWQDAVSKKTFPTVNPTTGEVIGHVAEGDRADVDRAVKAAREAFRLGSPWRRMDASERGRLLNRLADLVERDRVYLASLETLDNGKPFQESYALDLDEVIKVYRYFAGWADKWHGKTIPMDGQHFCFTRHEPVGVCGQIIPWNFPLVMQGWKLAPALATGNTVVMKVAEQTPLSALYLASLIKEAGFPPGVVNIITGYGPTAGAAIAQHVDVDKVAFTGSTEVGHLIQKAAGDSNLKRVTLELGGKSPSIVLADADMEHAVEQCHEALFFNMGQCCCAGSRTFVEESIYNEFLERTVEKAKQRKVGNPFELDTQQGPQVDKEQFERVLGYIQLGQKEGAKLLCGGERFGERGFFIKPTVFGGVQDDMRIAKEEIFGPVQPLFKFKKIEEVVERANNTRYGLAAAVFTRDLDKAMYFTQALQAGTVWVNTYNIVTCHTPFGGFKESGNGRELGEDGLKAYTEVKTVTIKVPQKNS

[3] = target: T3, Aldehyde dehydrogenase X, mitochondrial (Homo sapiens, UniProt P30837); assay: Inhibition of recombinant human ALDH1B1 using propionaldehyde as substrate preincubated for 2 mins with NAD+ followed by substrate addition by UV-Vis spectrophotometric analysis
T3 sequence (P30837 whole entry): T2 sequence (whole entry)

[4] = target: T4, Aldehyde dehydrogenase, mitochondrial (Homo sapiens, UniProt P05091); assay: Inhibition of recombinant human ALDH2 using propionaldehyde as substrate preincubated for 2 mins with NAD+ followed by substrate addition by UV-Vis spectrophotometric analysis
T4 sequence (P05091 whole entry): T1 sequence (whole entry)

[5] = target: T5, Aldehyde dehydrogenase 1A1 (Homo sapiens) (UniProt P00352); assay: Inhibition of recombinant human ALDH1A1 using propionaldehyde as substrate at 100 uM preincubated for 2 mins with NAD+ followed by substrate addition by UV-Vis spectrophotometric analysis relative to control
T5 sequence (whole entry): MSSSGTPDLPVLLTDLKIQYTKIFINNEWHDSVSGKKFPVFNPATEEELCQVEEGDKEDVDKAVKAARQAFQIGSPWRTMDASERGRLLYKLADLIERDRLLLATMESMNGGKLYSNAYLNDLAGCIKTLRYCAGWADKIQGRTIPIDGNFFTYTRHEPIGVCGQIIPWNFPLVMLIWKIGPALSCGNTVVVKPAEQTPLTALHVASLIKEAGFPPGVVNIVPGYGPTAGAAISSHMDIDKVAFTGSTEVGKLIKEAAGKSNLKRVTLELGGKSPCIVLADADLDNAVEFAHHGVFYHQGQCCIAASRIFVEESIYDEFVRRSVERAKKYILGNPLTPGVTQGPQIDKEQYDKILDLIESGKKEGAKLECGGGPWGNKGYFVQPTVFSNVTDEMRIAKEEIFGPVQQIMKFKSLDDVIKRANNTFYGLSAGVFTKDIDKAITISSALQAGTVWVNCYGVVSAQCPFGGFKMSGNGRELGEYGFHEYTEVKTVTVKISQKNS

[6] = target: T2, Aldehyde dehydrogenase X, mitochondrial (Homo sapiens); assay: Inhibition of recombinant human ALDH1B1 using propionaldehyde as substrate at 100 uM preincubated for 2 mins with NAD+ followed by substrate addition by UV-Vis spectrophotometric analysis
[7] = target: T6, Aldehyde dehydrogenase 1A1 (Homo sapiens, UniProt P00352); assay: Inhibition of recombinant human ALDH1A1 using propionaldehyde as substrate preincubated for 2 mins with NAD+ followed by substrate addition by UV-Vis spectrophotometric analysis
T6 sequence (P00352 whole entry): T5 sequence (whole entry)

Retinal dehydrogenase 2 = target: T7, Retinal dehydrogenase 2 (Homo sapiens, UniProt O94788); assay: Inhibition of recombinant human ALDH1A2 using propionaldehyde as substrate preincubated for 2 mins with NAD+ followed by substrate addition by UV-Vis spectrophotometric analysis
T7 sequence (O94788 whole entry): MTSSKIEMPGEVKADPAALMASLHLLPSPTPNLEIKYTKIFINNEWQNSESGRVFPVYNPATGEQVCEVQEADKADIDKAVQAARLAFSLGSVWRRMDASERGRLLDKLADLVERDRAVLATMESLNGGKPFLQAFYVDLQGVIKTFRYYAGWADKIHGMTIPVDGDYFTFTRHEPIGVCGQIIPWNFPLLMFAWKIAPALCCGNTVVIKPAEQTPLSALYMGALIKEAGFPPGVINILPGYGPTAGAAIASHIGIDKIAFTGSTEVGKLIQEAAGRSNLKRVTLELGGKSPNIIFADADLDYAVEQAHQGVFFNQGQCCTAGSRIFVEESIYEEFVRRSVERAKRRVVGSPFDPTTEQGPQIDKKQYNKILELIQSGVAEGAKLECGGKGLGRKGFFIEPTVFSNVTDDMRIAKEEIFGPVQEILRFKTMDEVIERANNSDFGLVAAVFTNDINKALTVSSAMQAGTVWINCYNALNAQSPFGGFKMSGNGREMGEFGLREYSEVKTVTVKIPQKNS

Row | Structure (SMILES) | Activity [1] [%] | Activity [2] [%] | IC50 [3] [µM] | IC50 [4] [µM] | Imax [5] [%] | inhibition [6] | IC50 [7] [µM] | IC50 (Retinal dehydrogenase 2) [µM]
1 | CCCCn1c(Oc2ccc(C(=O)OC)cc2)nc2c1c(=O)n(C)c(=O)n2C | < 10 | < 10 | – | – | < 70 | inactive | 5.2 | > 100
2 | Cn1c(=O)c2c(nc(SCC(N)=O)n2Cc2ccccc2F)n(C)c1=O | < 10 | < 10 | – | – | < 70 | inactive | 14 | –
3 | CC(C)CCn1c(CN2CCOCC2)nc2c1c(=O)n(C)c(=O)n2C | < 10 | < 10 | > 100 | > 100 | – | – | – | –
4 | Cn1c(=O)c2c(nc(N3CCN(Cc4ccccc4)CC3)n2Cc2cccc(Cl)c2)n(C)c1=O | < 10 | < 10 | – | – | – | – | > 20 | > 100
5 | CCCCn1c(CN2CCN(c3ccc(OC)cc3)CC2)nc2c1c(=O)n(C)c(=O)n2C | < 10 | < 10 | > 100 | – | – | – | > 20 | –
6 | Cn1c(=O)c2c(nc(N3CCOCC3)n2Cc2ccccc2F)n(C)c1=O | < 10 | < 10 | – | – | – | inactive | > 20 | –

More lines, now with the values ahead:

Row | Activity [1] [%] | Activity [2] [%] | IC50 [3] [µM] | IC50 [4] [µM] | Imax [5] [%] | inhibition [6] | IC50 [7] [µM] | IC50 (Retinal dehydrogenase 2) [µM] | Structure (SMILES)
7 | < 10 | < 10 | – | – | – | – | – | – | CC(C)CCn1c(CN2CCN(C(=O)c3ccco3)CC2)nc2c1c(=O)n(C)c(=O)n2C
8 | < 10 | < 10 | > 100 | > 100 | – | – | – | – | Cn1c(=O)c2c(nc(CN3CCC(C(N)=O)CC3)n2CCCc2ccccc2)n(C)c1=O
9 | < 10 | < 10 | > 100 | > 100 | < 70 | – | 3.4 | > 100 | CC(C)CCn1c(CN(C)Cc2ccccc2)nc2c1c(=O)n(C)c(=O)n2C
10 | < 10 | < 10 | > 100 | > 100 | – | – | > 20 | > 100 | CCCCn1c(CN2CCN(c3cccc(Cl)c3)CC2)nc2c1c(=O)n(C)c(=O)n2C
11 | < 10 | < 10 | – | – | – | inactive | – | – | CCN1CCN(Cc2nc3c(c(=O)n(C)c(=O)n3C)n2CC(=O)c2ccccc2)CC1
